We go through 80 compounds from patent publication US7998987B2, “Inhibitors of c-Met and uses thereof” (Vertex Pharmaceuticals Incorporated, priority 2005, dated 2011).

Sequence of c-Met (P08581 25-1390): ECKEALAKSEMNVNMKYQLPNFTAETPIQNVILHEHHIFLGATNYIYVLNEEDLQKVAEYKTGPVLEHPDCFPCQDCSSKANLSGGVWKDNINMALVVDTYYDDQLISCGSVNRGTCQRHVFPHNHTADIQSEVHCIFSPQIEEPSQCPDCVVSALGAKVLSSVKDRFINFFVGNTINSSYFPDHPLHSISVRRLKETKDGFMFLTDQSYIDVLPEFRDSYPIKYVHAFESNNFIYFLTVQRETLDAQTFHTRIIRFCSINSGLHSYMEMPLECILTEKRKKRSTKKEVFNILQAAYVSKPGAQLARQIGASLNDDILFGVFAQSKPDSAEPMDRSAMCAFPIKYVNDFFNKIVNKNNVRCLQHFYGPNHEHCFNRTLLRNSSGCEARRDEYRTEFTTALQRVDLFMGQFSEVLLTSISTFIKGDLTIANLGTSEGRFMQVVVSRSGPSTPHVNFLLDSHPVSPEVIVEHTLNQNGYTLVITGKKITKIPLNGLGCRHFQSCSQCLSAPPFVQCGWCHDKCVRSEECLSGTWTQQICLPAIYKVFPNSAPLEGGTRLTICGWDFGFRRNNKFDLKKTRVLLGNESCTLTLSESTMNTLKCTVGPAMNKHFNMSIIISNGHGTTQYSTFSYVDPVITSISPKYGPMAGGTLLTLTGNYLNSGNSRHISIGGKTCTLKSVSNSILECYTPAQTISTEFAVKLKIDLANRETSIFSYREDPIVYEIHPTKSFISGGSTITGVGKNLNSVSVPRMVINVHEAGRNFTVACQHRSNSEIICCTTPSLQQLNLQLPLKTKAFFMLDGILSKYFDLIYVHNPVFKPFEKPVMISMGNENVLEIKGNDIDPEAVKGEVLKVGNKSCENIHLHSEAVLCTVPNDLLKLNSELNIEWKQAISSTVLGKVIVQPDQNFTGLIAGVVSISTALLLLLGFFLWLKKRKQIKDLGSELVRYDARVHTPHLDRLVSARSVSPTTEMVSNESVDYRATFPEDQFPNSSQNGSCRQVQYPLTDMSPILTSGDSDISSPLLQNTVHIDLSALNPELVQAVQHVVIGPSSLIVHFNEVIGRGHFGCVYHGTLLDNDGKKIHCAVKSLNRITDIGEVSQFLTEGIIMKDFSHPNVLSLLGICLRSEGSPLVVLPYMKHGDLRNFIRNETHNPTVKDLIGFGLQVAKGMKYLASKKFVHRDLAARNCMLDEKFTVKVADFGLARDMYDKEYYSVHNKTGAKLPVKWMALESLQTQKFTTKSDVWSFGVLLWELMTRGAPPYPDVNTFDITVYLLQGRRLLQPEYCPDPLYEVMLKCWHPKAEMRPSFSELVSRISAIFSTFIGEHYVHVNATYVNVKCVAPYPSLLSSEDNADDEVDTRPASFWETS

The first assay addresses c-Met (Homo sapiens, UniProt P08581). Kind of assay: Ki determination for the inhibition of c-Met kinase activity (standard coupled enzyme system). In kind it is biochemical. As to conditions: coupled enzyme system, 200 μM ATP, 80 nM c-Met, 30° C.; read-out: c-Met Ki. The procedure, abridged: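 The kinase (80 nM) turned over polyGluTyr (10 μM) with ATP (200 μM, added to start), coupled to NADH oxidation via pyruvate kinase/lactate dehydrogenase at pH 7.5 HEPES, 1.5% DMSO.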
For `COc1ccc(Cc2nnc3ccc(Nc4cccc(C#N)c4)nn23)cc1` [Compound 287], the Ki was under 100 nM.

For the compound `CCc1cccc(Nc2ccc3nnc(Cc4ccc(O)cc4)n3n2)c1` [Compound 288], the inhibition constant (Ki) was under 100 nM.

As to `CCc1cccc(Nc2ccc3nnc(Cc4ccc(O)c(F)c4)n3n2)c1` [Compound 289], the Ki lay in the range of 100 to 2000 nM.

Turning to `CCc1cccc(Nc2ccc3nnc(Cc4ccc(O)c(Cl)c4)n3n2)c1` [Compound 290], the Ki was 100 to 2000 nM.

`CCc1cccc(Nc2ccc3nnc(Cc4ccc(OC)cc4)n3n2)c1` [Compound 291]: the Ki lay in the range of 100 to 2000 nM.

As to `Oc1ccc(Cc2nnc3ccc(Nc4cccc(C(F)(F)F)c4)nn23)cc1F` [Compound 292], the Ki was under 100 nM.

As to `COc1cccc(Nc2ccc3nnc(Cc4ccc(O)c(F)c4)n3n2)c1` [Compound 293], the Ki fell in the range of 100 to 2000 nM.

On to `Oc1ccc(Cc2nnc3ccc(Nc4cc(Cl)cc(Cl)c4)nn23)cc1` [Compound 294], for which the Ki is under 100 nM.

As to `Cc1cc(C)cc(Nc2ccc3nnc(Cc4ccc(O)cc4)n3n2)c1` [Compound 295], the Ki was under 100 nM.

`Cc1cc(C)cc(Nc2ccc3nnc(Cc4ccc(O)c(Cl)c4)n3n2)c1` [Compound 296]: the Ki was under 100 nM.

Consider `COc1ccc(Cc2nnc3ccc(Nc4cc(C)cc(C)c4)nn23)cc1` [Compound 297], for which the Ki was in the range of 100 to 2000 nM.

For `Oc1ccc(Cc2nnc3ccc(Nc4cc(F)cc(F)c4)nn23)cc1F` [Compound 298], the Ki is under 100 nM.

Turning to `CC(O)c1cccc(Nc2ccc3nnc(Cc4ccc(O)c(Cl)c4)n3n2)c1` (centres unmarked) [Compound 299], the Ki was 100 to 2000 nM.

Staying with this assay, now noted: coupled enzyme system, 200 μM ATP, 10 μM polyGluTyr, 80 nM c-Met, 30° C.; read-out: c-Met Ki.
As for `Fc1cccc(Nc2ccc3nnc(Cc4ccncc4)n3n2)c1` [Compound 220], the Ki is 100 to 2000 nM.

In the case of `N#Cc1cccc(Nc2ccc3nnc(Cc4ccc5c(c4)OCO5)n3n2)c1` [Compound 221], the Ki was under 100 nM.

As for `CCc1cccc(Nc2ccc3nnc(Cc4ccncc4)n3n2)c1` [Compound 222], the Ki was over 2000 nM.

Regarding `Oc1ccc(Cc2nnc3ccc(Nc4cccc(C(F)(F)F)c4)nn23)cc1` [Compound 223], the Ki was under 100 nM.

Take `Oc1ccc(Cc2nnc3ccc(Nc4cccc(C(F)(F)F)c4)nn23)cc1Cl` [Compound 224]: the Ki was under 100 nM.

For the compound `COc1ccc(Cc2nnc3ccc(Nc4cccc(C(F)(F)F)c4)nn23)cc1` [Compound 225], the inhibition constant Ki lay in the range of 100 to 2000 nM.

Consider `FC(F)(F)c1cccc(Nc2ccc3nnc(Cc4ccc5c(c4)OCO5)n3n2)c1` [Compound 226], for which the Ki was in the range of 100 to 2000 nM.

Regarding `FC(F)(F)c1cccc(Nc2ccc3nnc(Cc4ccncc4)n3n2)c1` [Compound 227], the Ki is 100 to 2000 nM.

As to `Cc1cccc(Nc2ccc3nnc(Cc4ccc(O)c(Cl)c4)n3n2)c1` [Compound 228], the Ki lay in the range of 100 to 2000 nM.

For `COc1ccc(Cc2nnc3ccc(Nc4cccc(C)c4)nn23)cc1` [Compound 229], the Ki was 100 to 2000 nM.

In the case of `Cc1cccc(Nc2ccc3nnc(Cc4ccc5c(c4)OCO5)n3n2)c1` [Compound 230], the Ki is 100 to 2000 nM.

Regarding `Cc1cccc(Nc2ccc3nnc(Cc4ccncc4)n3n2)c1` [Compound 231], the Ki was over 2000 nM.

Regarding `CNC(=O)c1cccc(Nc2ccc3nnc(Cc4ccc(O)cc4)n3n2)c1` [Compound 232], the Ki is 100 to 2000 nM.

Consider `CNC(=O)c1cccc(Nc2ccc3nnc(Cc4ccc(O)c(F)c4)n3n2)c1` [Compound 233], for which the Ki lay within 100 to 2000 nM.

As for `CNC(=O)c1cccc(Nc2ccc3nnc(Cc4ccc(O)c(Cl)c4)n3n2)c1` [Compound 234], the Ki is 100 to 2000 nM.

`CNC(=O)c1cccc(Nc2ccc3nnc(Cc4ccc(OC)cc4)n3n2)c1` [Compound 235]: the Ki fell in the range of 100 to 2000 nM.

Take `CNC(=O)c1cccc(Nc2ccc3nnc(Cc4ccc5c(c4)OCO5)n3n2)c1` [Compound 236]: the Ki lay within 100 to 2000 nM.

For `Oc1ccc(Cc2nnc3ccc(Nc4cccc(Cl)c4)nn23)cc1Cl` [Compound 237], the Ki was under 100 nM.

As for `COc1ccc(Cc2nnc3ccc(Nc4cccc(Cl)c4)nn23)cc1` [Compound 238], the Ki is under 100 nM.

Regarding `Clc1cccc(Nc2ccc3nnc(Cc4ccc5c(c4)OCO5)n3n2)c1` [Compound 239], the Ki is under 100 nM.

Consider `Clc1cccc(Nc2ccc3nnc(Cc4ccncc4)n3n2)c1` [Compound 240], for which the Ki is 100 to 2000 nM.

Regarding `COc1cccc(Nc2ccc3nnc(Cc4ccc(O)c(Cl)c4)n3n2)c1` [Compound 241], the Ki lay in the range of 100 to 2000 nM.

Consider `COc1ccc(Cc2nnc3ccc(Nc4cccc(OC)c4)nn23)cc1` [Compound 242], for which the Ki was in the range of 100 to 2000 nM.

`COc1cccc(Nc2ccc3nnc(Cc4ccc5c(c4)OCO5)n3n2)c1` [Compound 243]: the Ki lay in the range of 100 to 2000 nM.

Consider `COc1cccc(Nc2ccc3nnc(Cc4ccncc4)n3n2)c1` [Compound 244], for which the Ki was over 2000 nM.

As to `Oc1ccc(Cc2nnc3ccc(Nc4cc(Cl)cc(Cl)c4)nn23)cc1F` [Compound 245], the Ki was under 100 nM.

In the case of `Clc1cc(Cl)cc(Nc2ccc3nnc(Cc4ccc5c(c4)OCO5)n3n2)c1` [Compound 246], the Ki lay within 100 to 2000 nM.

With `Clc1cc(Cl)cc(Nc2ccc3nnc(Cc4ccncc4)n3n2)c1` [Compound 247], the Ki is 100 to 2000 nM.

Turning to `Cc1cc(C)cc(Nc2ccc3nnc(Cc4ccc5c(c4)OCO5)n3n2)c1` [Compound 248], the Ki was in the range of 100 to 2000 nM.

For `Cc1cc(C)cc(Nc2ccc3nnc(Cc4ccncc4)n3n2)c1` [Compound 249], the Ki was over 2000 nM.

As for `Oc1ccc(Cc2nnc3ccc(Nc4cc(F)cc(F)c4)nn23)cc1` [Compound 250], the Ki was under 100 nM.

Turning to `Oc1ccc(Cc2nnc3ccc(Nc4cc(F)cc(F)c4)nn23)cc1Cl` [Compound 251], the Ki was under 100 nM.

On to `COc1ccc(Cc2nnc3ccc(Nc4cc(F)cc(F)c4)nn23)cc1` [Compound 252], for which the Ki is under 100 nM.

Turning to `Fc1cc(F)cc(Nc2ccc3nnc(Cc4ccc5c(c4)OCO5)n3n2)c1` [Compound 253], the Ki was under 100 nM.

Take `Fc1cc(F)cc(Nc2ccc3nnc(Cc4ccncc4)n3n2)c1` [Compound 254]: the Ki fell in the range of 100 to 2000 nM.

For the compound `CC(O)c1cccc(Nc2ccc3nnc(Cc4ccc(O)cc4)n3n2)c1` (centres unmarked) [Compound 255], the Ki is under 100 nM.

Turning to `CC(O)c1cccc(Nc2ccc3nnc(Cc4ccc(O)c(F)c4)n3n2)c1` (centres unmarked) [Compound 256], the Ki lay in the range of 100 to 2000 nM.

On to `COc1ccc(Cc2nnc3ccc(Nc4cccc(C(C)O)c4)nn23)cc1` (centres unmarked) [Compound 257], for which the Ki was in the range of 100 to 2000 nM.

Turning to `CC(O)c1cccc(Nc2ccc3nnc(Cc4ccc5c(c4)OCO5)n3n2)c1` (centres unmarked) [Compound 258], the Ki was in the range of 100 to 2000 nM.

Regarding `OCc1cccc(Nc2ccc3nnc(Cc4ccc(O)cc4)n3n2)c1` [Compound 259], the Ki was under 100 nM.

As to `OCc1cccc(Nc2ccc3nnc(Cc4ccc(O)c(F)c4)n3n2)c1` [Compound 260], the Ki was in the range of 100 to 2000 nM.

For `OCc1cccc(Nc2ccc3nnc(Cc4ccc(O)c(Cl)c4)n3n2)c1` [Compound 261], the Ki lay within 100 to 2000 nM.

Turning to `COc1ccc(Cc2nnc3ccc(Nc4cccc(CO)c4)nn23)cc1` [Compound 262], the Ki is 100 to 2000 nM.

Regarding `OCc1cccc(Nc2ccc3nnc(Cc4ccc5c(c4)OCO5)n3n2)c1` [Compound 263], the Ki lay within 100 to 2000 nM.

In the case of `OCCc1cccc(Nc2ccc3nnc(Cc4ccc(O)cc4)n3n2)c1` [Compound 264], the Ki was under 100 nM.

On to `OCCc1cccc(Nc2ccc3nnc(Cc4ccc(O)c(F)c4)n3n2)c1` [Compound 265], for which the Ki was in the range of 100 to 2000 nM.

On to `COc1ccc(Cc2nnc3ccc(Nc4cccc(CCO)c4)nn23)cc1` [Compound 266], for which the Ki is 100 to 2000 nM.

Regarding `COc1ccc(CNc2ccc3nnc(Cc4ccc(O)cc4)n3n2)cc1` [Compound 267], the Ki was in the range of 100 to 2000 nM.

With `Oc1ccc(Cc2nnc3ccc(NCc4cccc(F)c4)nn23)cc1` [Compound 268], the Ki lay within 100 to 2000 nM.

Take `Oc1ccc(Cc2nnc3ccc(NC4CCCC4)nn23)cc1` [Compound 269]: the Ki is 100 to 2000 nM.

In the case of `CC1CCCC(Nc2ccc3nnc(Cc4ccc(O)cc4)n3n2)C1C` (centres unmarked) [Compound 270], the Ki lay in the range of 100 to 2000 nM.

As to `CC1CCC(Nc2ccc3nnc(Cc4ccc(O)cc4)n3n2)CC1` (centres unmarked) [Compound 271], the Ki was in the range of 100 to 2000 nM.

As to `Oc1ccc(Cc2nnc3ccc(N[C@H]4CC[C@H](O)CC4)nn23)cc1` [Compound 272], the Ki was in the range of 100 to 2000 nM.

For the compound `Oc1ccc(Cc2nnc3ccc(NC4CCN(Cc5ccccc5)C4)nn23)cc1` (centres unmarked) [Compound 273], the Ki is 100 to 2000 nM.

With `Oc1ccc(Cc2nnc3ccc(N[C@@H]4CCOC4)nn23)cc1` [Compound 274], the inhibitory constant (Ki) is 100 to 2000 nM.

With `Oc1ccc(Cc2nnc3ccc(NC4CC5CCC4C5)nn23)cc1` (centres unmarked) [Compound 275], the Ki is under 100 nM.

As for `CC(C)Nc1ccc2nnc(Cc3ccc(O)cc3)n2n1` [Compound 276], the Ki was 100 to 2000 nM.

With `Oc1ccc(Cc2nnc3ccc(NCc4ccccc4)nn23)cc1` [Compound 277], the Ki was 100 to 2000 nM.

On to `CCC(C)Nc1ccc2nnc(Cc3ccc(O)cc3)n2n1` (centres unmarked) [Compound 278], for which the Ki lay within 100 to 2000 nM.

For `CC(C)CC(C)Nc1ccc2nnc(Cc3ccc(O)cc3)n2n1` (centres unmarked) [Compound 279], the Ki lay in the range of 100 to 2000 nM.

Regarding `CCCC(C)Nc1ccc2nnc(Cc3ccc(O)cc3)n2n1` (centres unmarked) [Compound 280], the Ki lay within 100 to 2000 nM.

For the compound `CCC(CC)Nc1ccc2nnc(Cc3ccc(O)cc3)n2n1` [Compound 281], the Ki is 100 to 2000 nM.

`CC(C)C(CO)Nc1ccc2nnc(Cc3ccc(O)cc3)n2n1` (centres unmarked) [Compound 282]: the Ki fell in the range of 100 to 2000 nM.

`CN1CCC(Nc2ccc3nnc(Cc4ccc(O)cc4)n3n2)CC1` [Compound 283]: the Ki lay in the range of 100 to 2000 nM.

For the compound `CC1CCCC(Nc2ccc3nnc(Cc4ccc(O)cc4)n3n2)C1` (centres unmarked) [Compound 284], the Ki is under 100 nM.

Turning to `COc1ccc(Cc2nnc3ccc(Nc4cccc(F)c4)nn23)cc1` [Compound 285], the Ki was under 100 nM.

Turning to `Fc1cccc(Nc2ccc3nnc(Cc4ccc5c(c4)OCO5)n3n2)c1` [Compound 286], the Ki was under 100 nM.

As a reminder, the Ki is a dissociation constant, usually derived from enzyme kinetics or from competition with a known ligand.
